The assay relates to MIA PaCa-2 cells. Briefly: Cellular viability assay (Cell Titer Fluor). The format is cell-based. The conditions noted are these: Homo sapiens, MIA PaCa-2, 72 h, 72 hours incubation. As to the method: Cell viability were performed using the Cell Titer Fluor™ Assays (Promega G6080). MIA PaCa-2 cells are grown in DMEM media with 10% FBS, 1% Pen/Strep/Amphotericin B. Cells are trypsinized and counted using the Nexcelom cellometer. 5,000 cells/100 μl are plated per well in Greiner black/clear 96-well plates. Cells should be within 10 passages of stock vial for use in workflow. Three distinct lineages of these cells are cultured in parallel for multiple passages and 5 full plates of each lineage are seeded for one run. Small molecule compounds are provided as 100 mM stock solutions in DMSO. Dilution series plates are prepared using 1:3 dilution to achieve a 7 point concentration on a half log scale. After addition of compounds, cells are incubated 37° C., 5% CO2 for 72 hours.
For each test compound condition, triplicate technical replicates are used. For each reference compound, duplicate technical replicates are used. At the end of the 72-hour incubation, spent media is discarded. Then, 100 μl of GF-AFC diluted in DMEM (serum and phenol red-free) is added at 1:2000 concentration (5 μl/10 ml). Cells are incubated with reaction buffer for 1 h at 37° C. Fluorescence is then read on the plate reader with excitation wavelength of 390 nm and emission wavelength of 505 nm. All raw data are analyzed on Microsoft Excel 2010 and normalized to the DMSO vehicle control. Relative results are copied into GraphPad Prism for non-linear regression analysis and determination of IC50 and other dose curve parameters (min, max, Hill slope, etc.) using the log (inhibitor) vs. response equation. Values are as follows: A represents an IC50 of <[…], B represents an IC50 of 1 mM to 10 mM, C represents an IC50 of >10 mM.

Some results are limits rather than exact numbers.

Regarding `O=C(NCc1cc(-c2cccs2)[nH]n1)c1ccccc1N1CCC(F)(F)C1` [Compound 66], the IC50 was < 1000 nM.
The compound `COc1ccncc1-c1nc(CNC(=O)c2ccccc2OC(F)(F)F)n[nH]1` [Compound 35] gave a concentration for half-maximal inhibition (IC50) of 1000 to 10000 nM.
`O=C(NCc1cc(-c2cccs2)[nH]n1)c1cccc(C(F)(F)F)c1N1CCCC1` [Compound 82] had an IC50 of 1000 to 10000 nM.
Take `O=C(NCc1n[nH]c(-c2cccs2)n1)c1nccnc1N1CCC(F)(F)C1` [Compound 87, 3-(3,3-difluoropyrrolidin-1-yl)-N-((5-(thiophen-2-yl)-1H-1,2,4-triazol-3-yl)methyl) pyrazine-2-carboxamide]: the IC50 was > 10000 nM.
Take `COc1cccnc1-c1nc(CNC(=O)c2ccccc2OC(F)(F)F)n[nH]1` [Compound 34, N-((5-(3-methoxypyridin-2-yl)-1H-1,2,4-triazol-3-yl)methyl)-2-(trifluoromethoxy)benzamide]: the half-inhibitory concentration (IC50) lay within 1000 to 10000 nM.
`O=C(NCc1cc(-c2cccs2)[nH]n1)c1ccccc1N1CCCC1` [Compound 72]: the IC50 was < 1000 nM.
`O=C(NCc1cc(-c2cccs2)[nH]n1)c1ccccc1OC(F)F` [Compound 4]: the half-maximal inhibitory concentration (IC50) was > 10000 nM.
Compound `O=C(NCc1n[nH]c(-c2cccc(O)c2O)n1)c1ccccc1OC(F)F` [Compound 61, 2-(Difluoromethoxy)-N-((5-(2,3-dihydroxyphenyl)-1H-1,2,4-triazol-3-yl)methyl) benzamide] came in with an IC50 of 1000 to 10000 nM.
In turn, `CN1CCN(c2ccccc2C(=O)NCc2cc(-c3cccs3)[nH]n2)CC1` [Compound 71] displayed a half-maximal inhibitory concentration (IC50) of 1000 to 10000 nM.
The value for `COc1ccccc1-c1nc(CNC(=O)c2cccc(F)c2OC(F)F)n[nH]1` [Compound 136, 2-(difluoromethoxy)-3-fluoro-N-((5-(2-methoxyphenyl)-1H-1,2,4-triazol-3-yl)methyl) benzamide] was < 1000 nM; that for `O=C(NCc1cc(-c2ccccc2O)[nH]n1)c1cc(F)ccc1N1CCCCC1` [Compound 101] was < 1000 nM; that for `O=C(NCc1n[nH]c(-c2cccs2)n1)c1nccnc1N1CCCC(F)(F)C1` [Compound 90] was > 10000 nM.
Consider `O=C(NCc1n[nH]c(-c2cc(F)ccc2O)n1)c1ccccc1OC(F)F` [Compound 129], for which the IC50 is < 1000 nM.
Turning to `O=C(NCc1cc(-c2ccccc2O)[nH]n1)c1ccccc1OC(F)(F)F` [Compound 53], the IC50 was < 1000 nM.
With `N#Cc1ccc(N2CCCC(F)(F)C2)c(C(=O)NCc2cc(-c3cccs3)[nH]n2)c1` [Compound 85], the IC50 is < 1000 nM.
For `CCOc1ccc(Cl)cc1-c1cc(CNC(=O)c2ccccc2OC(F)F)n[nH]1` [Compound 47], the IC50 is > 10000 nM.
For `COc1ccccc1-c1nc(CNC(=O)c2ccccc2OC(F)(F)F)n[nH]1` [Compound 125], the half-maximal inhibitory concentration (IC50) was < 1000 nM.
With `O=C(NCc1cc(-c2cccs2)[nH]n1)c1cccnc1N1CC(F)(F)C1` [Compound 88], the IC50 was > 10000 nM.
With `COc1ncccc1-c1cc(CNC(=O)c2ccccc2OC(F)(F)F)n[nH]1` [Compound 27], the half-maximal inhibitory concentration (IC50) was > 10000 nM.
`CCCOc1ccc(F)cc1-c1cc(CNC(=O)c2ccccc2OC(F)(F)F)n[nH]1` [Compound 115]: the half-inhibitory concentration (IC50) is > 10000 nM.
As for `COc1ccccc1-c1nc(CNC(=O)c2cc(C#N)ccc2OC(F)F)n[nH]1` [Compound 140], the IC50 is < 1000 nM.
For the compound `O=C(NCc1cc(-c2csc(Cl)c2)[nH]n1)c1ccccc1OC(F)(F)F` [Compound 21], the concentration for half-maximal inhibition (IC50) is > 10000 nM.
Regarding `CN(C)c1ccccc1-c1cc(CNC(=O)c2ccccc2OC(F)(F)F)n[nH]1` [Compound 30], the IC50 was > 10000 nM.
The figure for `O=C(NCc1cc(-c2cc(F)cc(F)c2O)[nH]n1)c1ccccc1OC(F)(F)F` [Compound 50] is > 10000 nM; for `CCOc1ccc(F)cc1-c1cc(CNC(=O)c2cc(F)ccc2N2CCCC2)n[nH]1` [Compound 92] it is < 1000 nM.
On to `COc1ccccc1-c1cc(CNC(=O)c2ccccc2N2CCCCC2)n[nH]1` [Compound 102, N-((5-(2-methoxyphenyl)-1H-pyrazol-3-yl)methyl)-2-(piperidin-1-yl) benzamide], for which the half-maximal inhibitory concentration (IC50) is < 1000 nM.

The values above are taken from patent US11091447B2, “UBE2K modulators and methods for their use” (Berg LLC, priority 2020, dated 2021).
